{"source": "paper PMC11474028", "about": "“Lipopeptide antibiotics disrupt interactions of undecaprenyl phosphate with UptA” (Proceedings of the National Academy of Sciences of the …, 2024)", "target": "UptA (Bacillus subtilis, UniProt O31823)", "sequence (O31823 whole entry)": "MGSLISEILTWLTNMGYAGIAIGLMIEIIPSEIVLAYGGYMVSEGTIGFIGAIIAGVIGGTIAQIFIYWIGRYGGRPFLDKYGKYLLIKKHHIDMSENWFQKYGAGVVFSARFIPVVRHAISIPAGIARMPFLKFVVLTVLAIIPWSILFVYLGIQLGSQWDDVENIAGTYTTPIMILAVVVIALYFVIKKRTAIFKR", "test": "biochemical", "type": "binding", "procedure": "We explored the binding affinity of UptA toward C55-P by recording mass spectra for solutions containing 2.5 µM UptA and 0 to 40 µM C55-P in 200 mM ammonium acetate, 0.05% LDAO at pH 8.0. […] Further increase in the concentration of C55-P enhanced the intensity of the UptA:C55-P complex, together with the emergence of additional binding events (Fig. 2A). We deconvoluted the spectra ([34]) to extract mean relative intensities of bound and unbound forms of UptA in the spectral series.\nTo investigate the binding selectivity of UptA for monophosphate (C55-P) versus diphosphate (C55-PP) forms of the lipid carrier, we performed comparative binding assays. First, we recorded mass spectra for a mixture of UptA with increasing concentrations of C55-PP (SI Appendix, Fig. S3). […] We then fit the data to Hill equation to obtain an apparent Kd for this system.\nUptA is a member of the DedA family of transporters whose cellular functions are potentially driven by proton-motive force and provide conditional fitness to bacteria under alkaline conditions ([25], [26], [36]). […] To this end, we equilibrated C55-P with UptA at a protein/ligand molar ratio of 1:4 in a buffer of the same composition but at pH 8.0 and 5.0. […] As a negative control, we tested for pH sensitivity of C55-P binding to MraY, the latter being the downstream enzyme in the peptidoglycan pathway that couples UM5 to C55-P. To this end, we equilibrated MraY and C55-P at a molar ratio of 1:4 in a buffer of pH 8.0 and pH 5.0.\nNext, we investigated the chain length selectivity of UptA by testing its interaction with geranylgeranyl phosphate (C20-P), hexaprenyl phosphate (C30-P), and C55-P; the latter representing the native form of the lipid carrier in the model organisms B. subtilis and E. coli ([39]). For this experiment, we incubated 4 µM UptA with a 10-fold molar excess of C20-P, C30-P, and C55-P at pH 8.0 and recorded spectra under the same conditions. […] The length and stereochemistry of lipid tails can influence their interactions with membrane proteins ([40]).\nDetailed experimental procedures are provided in SI Appendix. Briefly, UptA (wild type and mutants) was expressed in E. coli C43(DE3) cells (Lucigen) with GFP fusion on the C-terminus and solubilized from the membrane fraction by n-dodecyl-β-D-maltopyranoside (DDM). After purification by affinity chromatography, the GFP was cleaved by TEV protease and removed, and UptA was further purified by size-exclusion chromatography in a buffer containing 20 mM Tris-HCl (pH 8.0), 200 mM NaCl, 0.02% DDM. Before measurements, proteins were buffer-exchanged into 0.05% LDAO, 200 mM ammonium acetate at the desired pH using a centrifugal buffer exchange device (Micro Bio-Spin 6, Bio-Rad). Stock solutions of lipids were prepared from chloroform/methanol solution by evaporating aliquots of known volume in a SpeedVac. After drying, the lipid films were weighed and resuspended to a final concentration of 0.5 mM in 200 mM ammonium acetate and 0.05% LDAO by vertexing.", "note": "“Also recorded” adds a separate entry of the source."}
{"compound": "CC(C)=CCC/C(C)=C/CC/C(C)=C/CC/C(C)=C\\CC/C(C)=C\\CC/C(C)=C\\CC/C(C)=C\\CC/C(C)=C\\CC/C(C)=C\\CC/C(C)=C\\CC/C(C)=C\\COP(=O)(O)O", "note": "[C55-P, undecaprenyl phosphate]", "values": [{"measurement": "protein/ligand molar ratio at which relative intensity of first binding event plateaued", "setting": "2.5 µM UptA, 0 to 40 µM C55-P, pH 8.0, 0.05% LDAO", "value": "~ 4"}, {"measurement": "binding to UptA by lipid chain length (in words)", "setting": "4 µM UptA, 10-fold molar excess (40 µM) of lipid, pH 8.0, 200 mM ammonium acetate, 0.05% LDAO", "value": "highest intensity of protein/ligand complexes; also recorded: more favorably than C55-PP, C30-P, and C20-P"}, {"measurement": "binding to UptA, equimolar mixture (in words)", "setting": "equimolar UptA and C55-P, 200 mM ammonium acetate, 0.05% LDAO, pH 8.0", "value": "high-affinity binding interactions"}, {"measurement": "Kd", "setting": "native MS, 2.5 µM UptA, 0 to 40 µM C55-P, 200 mM ammonium acetate, 0.05% LDAO, pH 8.0, Hill equation fit to mean relative intensities of three replicates, 95% CI: C55-P 5.0 to 6.4 µM, C55-PP 9.5 to 32.8 µM, read-out: apparent Kd for the binding of one ligand molecule (1×) to UptA", "value": 5.7, "unit": "µM"}, {"measurement": "selectivity of UptA for C55-P versus C55-PP (in words)", "setting": "native MS, 200 mM ammonium acetate, pH 8, 0.05% LDAO", "value": "UptA is more selective toward C55-P than C55-PP"}, {"measurement": "pH sensitivity of C55-P binding to UptA (in words)", "setting": "pH 8.0 vs pH 5.0", "value": "environmental pH modulates the interaction of C55-P with UptA; also recorded: less C55-P binding to UptA in the presence of excess H^+"}, {"measurement": "number of C55-P molecules in complex with UptA dimer", "setting": "protein/ligand molar ratio 1:4, pH 8.0", "value": "up to two"}, {"measurement": "factor by which ligand-bound UptA peaks are more intense at pH 8.0 compared to pH 5.0", "setting": "protein/ligand molar ratio 1:4, pH 8.0 vs pH 5.0, 200 mM ammonium acetate, 0.05% LDAO", "value": 3}, {"measurement": "C55-P binding to UptA dimer versus monomer (in words)", "setting": "wild type, protein/ligand molar ratio 1:4, pH 8.0", "value": "dimer interacts more favorably with C55-P than the monomer UptA"}]}
